Experimental data taken from patent US8912121B2, “Herbicidal compositions comprising 4-amino-3-chloro-5-fluoro-6-(4-chloro-2-fluoro-3-methoxyphenyl)pyridine-2-carboxylic acid or a derivative thereof and certain PS II inhibitors” (Dow Agrosciences LLC, priority 2012, dated 2014).

Tested on: SCPMA (Schoenoplectus maritimus, sea clubrush)
Assay: In-water applied mixtures, transplanted paddy rice, greenhouse
Type: in vivo, Schoenoplectus maritimus (L.) Lye
Experimental: Weed seeds or nutlets of the desired test plant species were planted in puddled soil (mud) prepared by mixing a shredded, non-sterilized mineral soil (50.5 percent silt, 25.5 percent clay, and 24 percent sand, with a pH of about 7.6 and an organic matter content of about 2.9 percent) and water at a 1:1 volumetric ratio. The prepared mud was dispensed in 365 mL aliquots into 16-ounce (oz.) non-perforated plastic pots with a surface area of 86.59 square centimeters (cm^2) leaving a headspace of 3 centimeters (cm) in each pot Mud was allowed to dry overnight prior to planting or transplanting. Rice seeds were planted in Sun Gro MetroMix® 306 planting mixture, which typically has a pH of 6.0 to 6.8 and an organic matter content of about 30 percent, in plastic plug trays. Seedlings at the second or third leaf stage of growth were transplanted into 840 mL of mud contained in 32-oz. non-perforated plastic pots with a surface area of 86.59 cm^2 4 days prior to herbicide application. The paddy was created by filling the headspace of the pots with 2.5 to 3 cm of water. When required to ensure good germination and healthy plants, a fungicide treatment and/or other chemical or physical treatment was applied. The plants were grown for 4-22 days in a greenhouse with an approximate 14 h photoperiod which was maintained at about 29° C during the day and 26° C. during the night. Nutrients were added as Osmocote® (19:6:12, N:P:K+ minor nutrients) at 2 g per 16-oz. pot and 4 g per 32-oz. pot. Water was added on a regular basis to maintain the paddy flood, and supplemental lighting was provided with overhead metal halide 1000-Watt lamps as necessary. The plants were employed for testing when they reached the first through fourth true leaf stage.
Treatments consisted of the acid or esters of 4-amino-3-chloro-5-fluoro-6-(4-chloro-2-fluoro-3-methoxy-phenyl)pyridine-2-carboxylic acid (compound A) each formulated as an SC (suspension concentrate) and various herbicidal components alone and in combination. Forms of compound A were applied on an acid equivalent basis.
Other herbicidal components were applied on an active ingredient basis and included photosystem II (PSII)-inhibits propanil formulated as […] bentazon-sodium formulated as Basagran®, and simetryne (technical grade material).
Treatment requirements for each compound or herbicidal component were calculated based upon the rates being tested, the concentration of active ingredient or acid equivalent in the formulation, an application volume of 2 mL per component per pot, and an application area of 86.59 cm^2 per pot.
For formulated compounds, a measured amount was placed in an individual 100 or 200 mL glass vial and was dissolved in a volume of 1.25% (v/v) Agri-Dex® crop oil concentrate to obtain application solutions.
For technical grade compounds, a weighed amount was placed in an individual 100 to 200 mL glass vial and was dissolved in a volume of acetone to obtain concentrated stock solutions. […] The concentrated stock solutions obtained were diluted with an equivalent volume of an aqueous mixture containing 2.5% (v/v) crop oil concentrate so that the final application solutions contained 1.25% (v/v) crop oil concentrate.
Applications were made by injecting with a pipetter appropriate amounts of the application solutions, individually and sequentially, into the aqueous layer of the paddy. Control plants were treated in the same manner with the solvent blank. Applications were made so that all treated plant material received the same concentrations of acetone and crop oil concentrate.
The treated plants and control plants were placed in a greenhouse as described above and water was added as needed to maintain a paddy flood. After approximately 3 weeks the condition of the test plants as compared with that of the untreated plants was determined visually and scored on a scale of 0 to 100 percent where 0 corresponds to no injury or growth inhibition and 100 corresponds to complete kill. […]

SMILES | Visual Weed Control (%) Obs (1680 g ai/ha, 21 DAA) [%] | Visual Weed Control (%) Obs (3360 g ai/ha, 21 DAA) [%] | Visual Weed Control (%) Obs (8.75 g ae/ha, 21 DAA) [%] | Visual Weed Control (%) Obs (17.5 g ae/ha, 21 DAA) [%] | Visual Weed Control (%) Obs (35 g ae/ha, 20 DAA) [%] | Visual Weed Control (%) Obs (35 g ae/ha, 21 DAA) [%] | Visual Weed Control (%) Obs (70 g ae/ha, 20 DAA) [%] | Visual Weed Control (%) Obs (42.4 g ae/ha, 20 DAA) [%] | Visual Weed Control (%) Obs (84.8 g ae/ha, 20 DAA) [%]
CCC(=O)Nc1ccc(Cl)c(Cl)c1 [Propanil, N-(3,4-dichlorophenyl)propanamide, reference compound] | 50 | 90 | – | – | – | – | – | – | –
COc1c(Cl)ccc(-c2nc(C(=O)OCc3ccccc3)c(Cl)c(N)c2F)c1F [Compound A Benzyl Ester, benzyl ester of 4-amino-3-chloro-5-fluoro-6-(4-chloro-2-fluoro-3-methoxy-phenyl)pyridine-2-carboxylic acid] | – | – | 0 | 0 | 0 | 0 | 0 | – | –
COc1c(Cl)ccc(-c2nc(C(=O)O)c(Cl)c(N)c2F)c1F [Compound A Acid, 4-amino-3-chloro-6-(4-chloro-2-fluoro-3-methoxyphenyl)-5-fluoropyridine-2-carboxylic acid] | – | – | 0 | 0 | – | 0 | – | 0 | 0
